In patent publication US20220242870A1, “HETEROCYCLE-FUSED PYRIMIDINE DERIVATIVE AND USE THEREOF” (VORONOI Inc., priority 2019, published 2022):

How the values were obtained:
human FLT3-ITD enzyme = molecular target: T1, human FLT3-ITD enzyme (Homo sapiens, UniProt P36888); assay: FLT3 enzyme inhibitory ability (ADP-Glo kinase assay); format: biochemical; settings: human FLT3-ITD enzyme 10 ng, ATP 10 μM, 25° C. 1 hour
T1 sequence (P36888 1-993): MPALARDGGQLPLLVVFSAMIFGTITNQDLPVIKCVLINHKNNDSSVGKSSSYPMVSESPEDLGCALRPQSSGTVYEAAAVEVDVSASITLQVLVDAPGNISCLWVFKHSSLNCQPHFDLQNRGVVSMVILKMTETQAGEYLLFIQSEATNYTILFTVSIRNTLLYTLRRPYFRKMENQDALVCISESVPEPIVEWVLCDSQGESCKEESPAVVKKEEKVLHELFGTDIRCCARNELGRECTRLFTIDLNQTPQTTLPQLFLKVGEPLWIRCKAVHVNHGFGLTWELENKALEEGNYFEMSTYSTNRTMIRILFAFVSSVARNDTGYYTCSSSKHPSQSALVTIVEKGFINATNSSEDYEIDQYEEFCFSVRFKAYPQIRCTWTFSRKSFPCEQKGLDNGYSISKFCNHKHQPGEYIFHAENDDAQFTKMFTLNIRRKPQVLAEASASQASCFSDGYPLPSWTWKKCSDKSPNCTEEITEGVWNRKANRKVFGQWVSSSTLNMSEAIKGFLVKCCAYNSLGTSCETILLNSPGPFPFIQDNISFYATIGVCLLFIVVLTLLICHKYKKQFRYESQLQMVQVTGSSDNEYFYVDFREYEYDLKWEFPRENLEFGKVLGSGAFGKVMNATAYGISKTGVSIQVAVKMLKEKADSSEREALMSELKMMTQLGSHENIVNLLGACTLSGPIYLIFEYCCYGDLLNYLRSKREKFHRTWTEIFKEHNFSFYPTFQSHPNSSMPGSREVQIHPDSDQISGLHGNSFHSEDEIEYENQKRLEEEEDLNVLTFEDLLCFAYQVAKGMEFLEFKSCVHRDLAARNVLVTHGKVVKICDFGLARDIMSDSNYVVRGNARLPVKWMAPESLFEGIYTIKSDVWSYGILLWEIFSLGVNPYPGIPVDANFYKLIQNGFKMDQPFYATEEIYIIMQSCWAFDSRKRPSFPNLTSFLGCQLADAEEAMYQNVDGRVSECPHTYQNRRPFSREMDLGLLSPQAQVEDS
Method: The inhibitory activities of the example compounds according to the present invention to the FLT3-ITD enzyme were evaluated. Specifically, the compound of the present invention was reacted with a purified human FLT3-ITD enzyme (Signalchem). A composition of 40 mM Tris-HCl pH 7.4, 20 mM MgCl2, 0.5 mg/mL BSA and 50 μM DTT was used as a reaction buffer, and reactions of all test matters were performed on the reaction buffer. Upon the test, human FLT3-ITD enzyme (10 ng), purified ATP (10 μM) and a specific substrate solution were reacted at 25° C. for 1 hour, and then the enzyme activity was identified using an in vitro ADP-Glo™ kinase assay (Promega). The enzyme activity reaction solution, the ADP-Glo reaction solution and the enzyme ability detection solution were reacted in a ratio of 2:2:1, and the activity inhibition degree of the enzyme was measured as luminescence. Using the solvent-treated group that was not treated with the compound as a control group, the enzyme activity inhibition degree according to the treatment concentration of each compound was calculated based on the enzyme activity fluorescence degree, and the concentration of each compound that inhibited 50%, IC50 (nM), was determined using Prism Software (version 5.01, GraphPad).

MCF-7 cells = assay: Breast cancer cell line proliferation inhibitory activity (CellTiter-Glo 2.0); format: cell-based; settings: Homo sapiens, MCF7, 120 hours
Method: In order to evaluate the breast cancer cell line cell proliferation inhibitory activities of Examples according to the present invention, the following experiment was performed. Breast cancer cells of MCF-7 (Korean Cell Line Bank) were planted in a clear bottom white 96-well plate (Corning) so as to be 3×10^3/150 μl/well, and a culture solution comprising the compound continuously diluted in multiples of 3 at 12 concentrations (0.00001-2 mM) and a DMSO control group was added by 0.5 μl/well and treated so that the final concentration was 0.00005-10 μM, and then cultured in a 37° C. CO2 incubator for 120 hours. After 120 hours, the plate treated with the compound is taken out, and CellTiter-Glo® 2.0 Assay (Promega) solution is treated at 150 μl/well and then they mix well. They mix well at room temperature for 10 minutes or so, and the fluorescence is measured with a microplate reader. The data were expressed as a percentage in proportion to the vehicle standard treated cells, the GI50 (nM) values were calculated using GraphPad Prism 8.3.0 (GraphPad software Inc., San Diego), and the results were shown in Table 3 below.

human GST-HPK1 (1-346) = molecular target: T2, human GST-HPK1 (1-346) (Homo sapiens, UniProt Q92918); assay: HPK1 enzyme inhibitory ability (ADP-Glo kinase assay); format: biochemical; settings: human GST-HPK1 3 ng, ATP 3 uM, 25° C. 2 hours
T2 construct: purified human GST-HPK1 (1-346, Signalchem) enzyme; purchased Signalchem
T2 sequence (Q92918 1-346): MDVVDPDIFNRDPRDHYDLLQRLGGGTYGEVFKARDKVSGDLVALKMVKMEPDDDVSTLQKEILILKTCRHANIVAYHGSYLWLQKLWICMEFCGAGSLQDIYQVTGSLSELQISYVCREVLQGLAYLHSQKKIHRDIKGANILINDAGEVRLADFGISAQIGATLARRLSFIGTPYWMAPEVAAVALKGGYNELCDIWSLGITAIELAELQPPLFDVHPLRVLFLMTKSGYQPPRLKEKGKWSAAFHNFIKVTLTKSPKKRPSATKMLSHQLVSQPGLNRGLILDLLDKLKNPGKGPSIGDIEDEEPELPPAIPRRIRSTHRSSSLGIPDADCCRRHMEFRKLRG
Method: In order to evaluate the inhibitory activities of the example compounds according to the present invention on the HPK1 (hematopoietic progenitor kinase 1) enzyme, the following experiment was performed. The example compounds were reacted with the purified human GST-HPK1 (1-346, Signalchem) enzyme to evaluate the enzyme inhibitory ability by the following method. As the reaction buffer, a composition of 40 mM Tris-HCl pH 7.4, 20 mM MgCl2, 0.5 mg/mL BSA and 50 uM DTT was used, and reactions of all test matters were performed on the reaction buffer. Upon the test, the human GST-HPK1 (3 ng) enzyme, the purified ATP (3 uM) and a specific substrate solution were reacted at 25° C. for 2 hours, and then the enzyme activity was identified using an in vitro ADP-Glo™ kinase assay (promega). The enzyme activity reaction solution, the ADP-Glo reaction solution and the enzyme ability detection solution were reacted in a ratio of 2:2:1 to measure luminescence. The enzyme activity inhibition degree according to the treatment concentrations of the respective compounds was calculated based on the fluorescence of the enzyme activity of the solvent control group that was not treated with the compound, where the concentration of each compound that inhibited enzyme activity inhibition by 50% was determined as an IC50 (nM) value.

Row | Structure (SMILES) | IC50 (human FLT3-ITD enzyme) [nM] | GI50 (MCF-7 cells) [nM] | IC50 (human GST-HPK1 (1-346)) [nM]
1 | CN1C[C@H]2C[C@@H]1CN2c1cc(Nc2nc(N3OCC[C@H]3c3ccccc3)c3cc[nH]c3n2)cc(S(C)(=O)=O)c1 [Example 92, N-(3-((1R,4R)-5-methyl-2,5-diazabicyclo[2.2.1]heptan-2-yl)-5-(methylsulfonyl)phenyl)-4-((S)-3-phenylisoxazolidin-2-yl)-7H-pyrrolo[2,3-d]pyrimidin-2-amine] | > 500 | > 500 | ≥ 250
2 | OCCN1CC[C@@H](Oc2cc(Nc3nc(N4OCC[C@H]4c4ccccc4)c4cc[nH]c4n3)cc(C3CC3)c2)C1 [Example 93, 2-((R)-3-(3-cyclopropyl-5-((4-((S)-3-phenylisoxazolidin-2-yl)-7H-pyrrolo[2,3-d]pyrimidin-2-yl)amino)phenoxy)pyrrolidin-1-yl)ethan-1-ol] | > 500 | > 500 | > 500
3 | CN1CCC(NC(=O)c2ccc(Nc3nc(N4OCC[C@H]4c4ccccc4)c4cc[nH]c4n3)cc2)CC1 [Example 95, (S)-N-(1-methylpiperidin-4-yl)-4-((4-(3-phenylisoxazolidin-2-yl)-7H-pyrrolo[2,3-d]pyrimidin-2-yl)amino)benzamide] | > 500 | > 500 | ≥ 250
4 | CN(C)[C@H]1CCN(c2cccc(Nc3nc(N4OCC[C@H]4c4ccccc4)c4cc[nH]c4n3)c2)C1 [Example 99, N-(3-((S)-3-(dimethylamino)pyrrolidin-1-yl)phenyl)-4-((S)-3-phenylisoxazolidin-2-yl)-7H-pyrrolo[2,3-d]pyrimidin-2-amine] | > 500 | > 500 | > 500
5 | CN(C)[C@@H]1CCN(c2cccc(Nc3nc(N4OCC[C@H]4c4ccccc4)c4cc[nH]c4n3)c2)C1 [Example 100, N-(3-((R)-3-(dimethylamino)pyrrolidin-1-yl)phenyl)-4-((S)-3-phenylisoxazolidin-2-yl)-7H-pyrrolo[2,3-d]pyrimidin-2-amine] | > 500 | > 500 | > 500
6 | CC1(C)OC(=O)c2ccc(Nc3nc(N4OCC[C@H]4c4ccccc4)c4cc[nH]c4n3)cc21 [Example 115, (S)-3,3-dimethyl-5-((4-(3-phenylisoxazolidin-2-yl)-7H-pyrrolo[2,3-d]pyrimidin-2-yl)amino)isobenzofuran-1(3H)-one] | > 500 | > 500 | > 500

The next lines start with the values.

Row | IC50 (human FLT3-ITD enzyme) [nM] | GI50 (MCF-7 cells) [nM] | IC50 (human GST-HPK1 (1-346)) [nM] | Structure (SMILES)
7 | > 500 | > 500 | > 500 | COc1cc(Nc2nc(N3OCC[C@H]3c3ccccc3)c3sccc3n2)cc(C(=O)N2CCN(CCO)CC2)c1 [Example 66, (S)-(4-(2-hydroxyethyl)piperazin-1-yl)(3-methoxy-5-((4-(3-phenylisoxazolidin-2-yl)thieno[3,2-d]pyrimidin-2-yl)amino)phenyl)methanone]
8 | > 500 | > 500 | > 500 | COc1cc(Nc2nc(N3OCC[C@@H]3c3ccccc3)c3sccc3n2)cc(C(=O)N2CCN(CCO)CC2)c1 [Example 67, (R)-(4-(2-hydroxyethyl)piperazin-1-yl)(3-methoxy-5-((4-(3-phenylisoxazolidin-2-yl)thieno[3,2-d]pyrimidin-2-yl)amino)phenyl)methanone]
9 | 250 to 500 | > 500 | > 500 | CN1CCN(c2ccc(Nc3nc(N4N=CCC4c4ccccc4)c4cc[nH]c4n3)cc2)CC1 (stereo not drawn) [Example 68, N-(4-(4-methylpiperazin-1-yl)phenyl)-4-(5-phenyl-4,5-dihydro-1H-pyrazol-1-yl)-7H-pyrrolo[2,3-d]pyrimidin-2-amine]
10 | 250 to 500 | > 500 | ≥ 250 | OCCN1CCN(c2ccc(Nc3nc(N4OCC[C@H]4c4ccccc4)c4cc[nH]c4n3)cc2)CC1 [Example 81, (S)-2-(4-(4-((4-(3-phenylisoxazolidin-2-yl)-7H-pyrrolo[2,3-d]pyrimidin-2-yl)amino)phenyl)piperazin-1-yl)ethan-1-ol]
11 | ≥ 250 | > 500 | ≥ 250 | COc1cc(Nc2nc(N3OCC[C@H]3c3ccccc3)c3cc[nH]c3n2)ccc1N1CCN(CCO)CC1 [Example 82, (S)-2-(4-(2-methoxy-4-((4-(3-phenylisoxazolidin-2-yl)-7H-pyrrolo[2,3-d]pyrimidin-2-yl)amino)phenyl)piperazin-1-yl)ethan-1-ol]
12 | > 500 | > 500 | ≥ 250 | CCN1CCN(C2CCN(c3ccc(Nc4nc(N5OCC[C@H]5c5ccccc5)c5cc[nH]c5n4)cc3)CC2)CC1 [Example 85, (S)-N-(4-(4-(4-ethylpiperazin-1-yl)piperidin-1-yl)phenyl)-4-(3-phenylisoxazolidin-2-yl)-7H-pyrrolo[2,3-d]pyrimidin-2-amine]
13 | 250 to 500 | > 500 | ≥ 250 | COc1cc(Nc2nc(N3OCC[C@H]3c3ccccc3)c3cc[nH]c3n2)ccc1N1CCC(N2CCN(CCO)CC2)CC1 [Example 90, (S)-2-(4-(1-(2-methoxy-4-((4-(3-phenylisoxazolidin-2-yl)-7H-pyrrolo[2,3-d]pyrimidin-2-yl)amino)phenyl)piperidin-4-yl)piperazin-1-yl)ethan-1-ol]
14 | > 500 | > 500 | ≥ 250 | CN1C[C@@H]2C[C@H]1CN2c1cc(Nc2nc(N3OCC[C@H]3c3ccccc3)c3cc[nH]c3n2)cc(S(C)(=O)=O)c1 [Example 91, N-(3-((1S,4S)-5-methyl-2,5-diazabicyclo[2.2.1]heptan-2-yl)-5-(methylsulfonyl)phenyl)-4-((S)-3-phenylisoxazolidin-2-yl)-7H-pyrrolo[2,3-d]pyrimidin-2-amine]
